Reference: publication PMC5527305, “Prevention of Ophthalmia Neonatorum Caused by Neisseria gonorrhoeae Using a Fatty Acid-Based Formulation” (mBio, 2017)
Values after ≈ are worked out from the molar mass of the structure shown. “Also recorded” adds a separate entry of the source. Where two headings read alike, the source gives them in different places.

How the values were obtained:
[1] = tested on: N. gonorrhoeae strain NCCP11945; assay: Growth inhibition screen on GC solid media containing 1 mM candidate; format: cell-based, Neisseria gonorrhoeae; settings: 1 mM candidate in GC agar media; Yes = strain NCCP11945 did not grow
Procedure: (§1) To find potential candidates, 37 organic acids, esters, and salts were tested in a two-tiered screening process. These candidates were chosen based on the carbon chain lengths of the fatty acids, the presence or absence of saturation, and modifications to represent a diverse selection of organic acid candidates. The first screen aimed to determine the ability of each compound to inhibit the growth of N. gonorrhoeae strain NCCP11945 at 1 mM in GC solid media (Table 1). This strain was chosen due to its relatively recent isolation, its antibiotic resistance profile, and the availability of a complete genome sequence. Those candidates able to inhibit the growth of N. gonorrhoeae strain NCCP11945 were investigated in a second assay. The second assay tested the ability of each compound to cause at least a 4-log reduction in viable bacteria at 1 mM with a 2-min exposure time (Table 1).
(§2) The well-characterized N. gonorrhoeae NCCP11945 strain ([36]) was used in the screening stage. Eight isolates obtained from Public Health England, representing circulating isolates from various European locations, were used in the log reduction assays. All isolates were cultured for 24 h prior to testing by plating on GC solid medium (Oxoid Limited, Hampshire, United Kingdom) with Kellogg supplements and incubation at 37°C and 5% CO2 ([37]).

[2] = tested on: N. gonorrhoeae strain NCCP11945; assay: Log reduction assay in GC broth, 2-min exposure; format: cell-based, Neisseria gonorrhoeae; settings: for log reduction at 1000 µM: Neisseria gonorrhoeae, NCCP11945, 2 min, 1 mM, read-out: Log reduction at 1 mM (calculated log reduction in viable bacteria); for log reduction at 1000 µM / Log reduction at 1 mM (calculated log reduction in viable bacteria): maximum score 6 = all cells killed
Procedure: as §1
(§3) Log reductions were done as described by Bergsson and coworkers ([18]). Briefly, cells were suspended in GC broth (18 g/liter GC base [Oxoid, Limited] with added defined supplements) to an optical density at 520 nm of 0.3, which is approximately equivalent to 10^7 to 10^8 cells per ml ([38]). […] The contents of the tubes were then mixed at room temperature for 2 min and immediately diluted in a 10-fold dilution series to 10^−4. The dilutions were plated by spreading 10 µl on a quarter of a plate; a 100-µl neat solution was also plated. Plates were then incubated at 37°C for 48 h, with all samples plated in duplicate. […] Additional testing at lower concentrations was also done on the eight clinical isolates of European origin.

[3] = tested on: nine gonococcal isolates (strain NCCP11945 and eight isolates from Public Health England); assay: Minimum bactericidal concentration by log reduction against nine gonococcal isolates; format: cell-based, Neisseria gonorrhoeae; settings: for Killing of all gonococcal cells for all isolates: 1 mM; for MBC: lowest concentration giving mean log reduction above 4 from a 2-min exposure
Source text: The seven candidates were further tested against nine gonococcal isolates, including strain NCCP11945 and eight isolates from Public Health England, to find their minimal bactericidal concentration (MBC). This was defined as the lowest concentration tested to give an average 4-log10 reduction in bacterial count after a 2-min exposure. […] Any candidate that killed all gonococcal cells in the cell suspension was given a log reduction score of six.
as §2, §3

[4] = tested on: gonococcal cells (isolate NCCP 11945); assay: Log reduction in artificial tear fluid with or without calcium chloride; format: cell-based, Neisseria gonorrhoeae; settings: for Reduction in bacterial cell number in artificial tear fluid containing calcium chloride / Antigonococcal properties in tear fluid made without calcium chloride: 1 mM candidate, 2 min; for Reduction in bacterial cell number in artificial tear fluid containing calcium chloride: with calcium; for Effect of calcium in artificial tear fluid on antimicrobial effect: calcium 1 mM, Fig. 2
Procedure: The antigonococcal properties of the seven selected fatty acids were tested in artificial tear fluid, which contained calcium chloride. The addition of 1 mM lauric acid, tridecanoic acid, or sodium dodecanoate gave no reduction in bacterial cell number after exposure, in contrast to the results seen when they were tested in culture medium (Fig. 2). […] This was most likely due to the negative effect of calcium on the aqueous solubility of these candidates.
Artificial tear fluid was made as described by Mirejovsky and others ([39]) with or without calcium chloride. […] As with the previous log reductions, 10^7 gonococcal cells (isolate NCCP 11945) were suspended in GC broth. The cell suspension was centrifuged to remove the culture medium, and the bacteria were resuspended in the tear fluid. This was then added to the concentrated organic acid candidates. The cells were then enumerated again after 2 min of exposure to estimate any reduction in cell number due to the exposure to the organic acid.

[5] = tested on: bovine RBCs; assay: Red blood cell (RBC) lysis assay; format: cell-based
Procedure: Whole bovine blood was obtained from a local slaughter house (ABP), adding 90 ml blood to 10 ml 110 mM trisodium citrate anticoagulant. RBCs were isolated the same day. The RBCs were washed by three repeats of centrifugation (1,500 × g for 10 min) and resuspension in phosphate-buffered saline (PBS) with 10 mM glucose (PBSG). Testing was done following the guidelines of the European Union Reference Laboratory for alternatives to animal testing (EURL-ECVAM) ([22]). The organic acids were solubilized in dimethyl sulfoxide (DMSO) and diluted to a maximum DMSO concentration of 10%. In a 2-ml centrifuge tube, 750 µl of the sample was added to 250 µl RBCs. Controls used in the assay were a complete lysis control (deionized water) and a fragility control (PBSG–10% DMSO). Samples were shaken at room temperature for 1 h and then centrifuged at 14,000 × g for 2 min. An aliquot of 750 µl of the supernatant was taken and its absorbance at 451 nm measured.

[6] = tested on: bovine cornea; assay: Bovine corneal opacity and permeability (BCOP) test
Procedure: Bovine eyes were collected from a local slaughter house (ABP, Guildford, Surrey, United Kingdom) and were transported in cold saline solution for testing at the laboratory. Each eye was first visually examined for signs of damage before use. The test was conducted as detailed by Abdelkader and coworkers ([21]). The exposure time of the test substances was 30 s. The selected bactericidal compounds were tested at 1 mM in saline solution, with a corresponding vehicle control (1% ethanol–saline solution) also performed. […] The test area of the cornea was then washed with 10 ml saline solution. Corneal damage to the test area was assessed by fluorescein staining and examination under a cobalt blue filter. Pathological scoring based on opacity, epithelial integrity, and epithelial detachment was done in accordance with previous publications ([19]). Each of the seven lead candidates was tested in triplicate, and each test was performed on a separate day using a different batch of eyeballs. Corneal histology was done as outlined by Abdelkader and coworkers ([21]) by evaluating the damage to the epithelial layer and stroma of the cornea after hematoxylin and eosin staining.

[7] = Neisseria gonorrhoeae, 2 min, read-out: MBC

Structure (SMILES)	Growth inhibition [1]	Log reduction at 1 mM: at least a 4-log reduction in viable bacteria (Yes/No) [2]	log reduction at 1000 µM [2]	other results
CCCCCCCC(=O)OCC(O)CO (racemic) [1-octanoyl-rac-glycerol]	Yes	No	0	
O=C(O)CCCCC(=O)O [Adipic acid]	No			
CCCCC/C=C\C/C=C\C/C=C\C/C=C\CCCC(=O)O [Arachidonic acid]	Yes			
O=C(O)CCCCCCCC(=O)O [Azelaic acid]	No			
CCCCCCCCCC(=O)O [Capric acid/decanoic acid]	No			
CCCCCCCC(=O)O [Caprylic/octanoic acid]	No			
CCCCCCCC/C=C/CCCCCCCC(=O)O [Elaidic acid]	Yes	No	0.5	
CCCCCCCC/C=C\CCCCCCCCCCCC(=O)O [Erucic acid]	Yes	No	0	
CCCCCCCCCCCCCCCCC(=O)O [Heptadecylic acid]	No			
CCCCCCCCCCCCCC(=O)OC(C)C [Isopropyl myristate]	No			
CCCCCCCCCCCCCCCC(=O)OC(C)C [Isopropyl palmitate]	No			
CCCCCCCCCCCC(=O)O [Lauric acid]	Yes	Yes		Log reduction at 1 mM (calculated log reduction in viable bacteria) [2]: > 6 log10; Killing of all gonococcal cells for all isolates ([3]; 2 min): killed all gonococcal cells for all isolates; MBC [3]: 750 µM (≈ 150 µg/mL); Reduction in bacterial cell number in artificial tear fluid containing calcium chloride [4]: no reduction; Antigonococcal properties in tear fluid made without calcium chloride [4]: completely restored; Effect of calcium in artificial tear fluid on antimicrobial effect [4]: inactivated; H50 concentration relative to MBC [5]: greater than their MBCs
CCCCC/C=C\C/C=C\CCCCCCCC(=O)O [Linoleic acid]	Yes	No	1.6	
CCCCCCCCCCCCCC(=O)OCC(O)CO (stereo not drawn) [Monomyristin]	Yes	No		Log reduction at 1 mM (calculated log reduction in viable bacteria) [2]: 0.6 log10
CCCCCCCCCCCCCC(=O)O [Myristic acid]	Yes	No	1.5	
CCCCCCCC/C=C\CCCCCCCC(=O)O [Oleic acid]	Yes	No	1	
CCCCCCCCCCCCCCCC(=O)O [Palmitic acid]	No			
CCCCCC/C=C\CCCCCCCC(=O)O [Palmitoleic acid]	Yes	Yes	> 6	Killing of all gonococcal cells for all isolates ([3]; 2 min): did not; MBC [3, 7]: 500 µM (≈ 127 µg/mL); H50 concentration relative to MBC ([5]; H50 = concentration to lyse 50% of RBCs, MBC from Table 1): lower than their minimum bactericidal concentration
CCCCCCCCCCCCCCC(=O)O [Pentadecylic acid]	Yes	No		Log reduction at 1 mM (calculated log reduction in viable bacteria) [2]: 0.5 log10
O=C(O)CCCCCC(=O)O [Pimelic acid]	No			
CCCCCC[C@@H](O)C/C=C\CCCCCCCC(=O)O [Ricinoleic acid]	Yes	No		Log reduction at 1 mM (calculated log reduction in viable bacteria) [2]: 3.5 log10
O=C(O)CCCCCCCCC(=O)O [Sebacic acid]	No			
CCCCCCCCCCCC(=O)[O-].[Na+] [Sodium dodecanoate]	Yes	Yes		Log reduction at 1 mM (calculated log reduction in viable bacteria) [2]: > 6 log10; Killing of all gonococcal cells for all isolates ([3]; 2 min): killed all gonococcal cells for all isolates; MBC [3]: 750 µM; Reduction in bacterial cell number in artificial tear fluid containing calcium chloride [4]: no reduction; Antigonococcal properties in tear fluid made without calcium chloride [4]: completely restored; Effect of calcium in artificial tear fluid on antimicrobial effect [4]: inactivated; Mean cumulative BCOP score ([6]; 1 mM in saline solution, 30 s exposure, triplicate): lower than 0.5; Fluorescein staining of cornea ([6]; 1 mM, around rubber application ring): any sign of fluorescein staining; BCOP irritancy classification ([6]; candidates 1 mM in saline, controls 0.5 M NaOH, 100% acetone, 30 s exposure): nonirritants
CCCCCCCCCCCCCC(=O)[O-].[Na+] [Sodium myristate]	Yes	No		Log reduction at 1 mM (calculated log reduction in viable bacteria) [2]: 0.5 log10
C/C=C/C=C/C(=O)O [Sorbic acid]	No			
CCCCCCCCCCCCCCCCCC(=O)O [Stearic acid]	No			
O=C(O)CCCCCCC(=O)O [Suberic acid]	No			
O=C(O)CCC(=O)O [Succinic acid]	No			
CCCCCCCCCCCCC(=O)O [Tridecanoic acid]	Yes	Yes	> 6	Killing of all gonococcal cells for all isolates ([3]; 2 min): did not; MBC [3, 7]: 750 µM (≈ 161 µg/mL); Reduction in bacterial cell number in artificial tear fluid containing calcium chloride [4]: no reduction; Antigonococcal properties in tear fluid made without calcium chloride [4]: completely restored; Effect of calcium in artificial tear fluid on antimicrobial effect [4]: inactivated; H50 concentration relative to MBC [5]: greater than their MBCs; RBC lysis (hemolysis) ([5]; 1 h incubation, bovine RBCs): did not lyse RBCs at any concentration investigated; also recorded: did not cause any hemolysis
CCCCCCCCCCC(=O)O [Undecanoic acid]	Yes	No	0.2	
